Laboratory results from US10905691B2, “Use of triazolo(4,5-d)pyrimidine derivatives for prevention and treatment of bacterial infection” (Universite de Liege, priority 2016, dated 2021).
≈ marks a conversion by molar mass, not a printed value.

Assays:
E. faecalis ATCC 29212 = assay: MIC determination (EUCAST, Mueller-Hinton broth); type: cell-based; conditions: Enterococcus faecalis, ATCC29212
Procedure: (§1) Further experiments were conducted using different strains of E. faecalis, as clinically relevant Gram-positive bacterial strains: E. faecalis vancomycin-resistant (VRE) ATCC BAA-2365, and E. faecalis ATCC 29212 in order to determine the Minimal Inhibitory Concentration (MIC) which is the minimal concentration required to prevent bacterial growth; the Minimal Bactericidal Concentration (MBC) which determines the lowest concentration at which an antimicrobial agent kill a particular microorganism and a Minimum Duration for killing 99.9% bacteria (MDK99.9) which is a tolerance metric according to the EUCAST.
MIC determination: A single colony selected from the different strains of E. faecalis is resuspended and cultured in the appropriate medium overnight (O/N) in aerobic conditions (37° C. with 220 rpm shaking), next day a 1:100 inoculum in Mueller-Hinton broth (MHB) was incubated in aerobic conditions for 3 hr (OD=0.08-0.1) and an inoculum of 1:300 dilution, corresponding to 3×10^5 CFU/ml, was incubated in presence or absence of different concentrations of Triafluocyl in 1% DMSO. After O/N growth the OD of each culture was measured at 600 nm in a spectrophotometer (OD600). The MIC represents the concentration at which there is no visible growth of bacteria, i.e. ΔOD at 600 nm equal to zero (blank is the medium alone). […]

[1] = system: S. agalactiae (ATCC 12386); assay: MIC determination (EUCAST, Mueller-Hinton broth); type: cell-based; conditions: Streptococcus agalactiae, ATCC12386
Procedure: as §1, with “S. agalactiae (ATCC 12386),” for “different strains of E. faecalis,”, “strains” for “strains: E. faecalis vancomycin-resistant (VRE) ATCC BAA-2365, and E. faecalis ATCC 29212”
MIC determination: A single colony selected from the different strains of S. agalactiae (ATCC 12386) is resuspended and cultured in the appropriate medium overnight (O/N) in aerobic conditions (37° C. with 220 rpm shaking), next day a 1:100 inoculum in Mueller-Hinton broth (MHB) was incubated in aerobic conditions for 3 hr (OD=0.08-0.1) and an inoculum of 1:300 dilution, corresponding to 3×10^5 CFU/ml, was incubated in presence or absence of different concentrations of Triafluocyl in 1% DMSO. After O/N growth the OD of each culture was measured at 600 nm in a spectrophotometer (OD600). The MIC represents the concentration at which there is no visible growth of bacteria, i.e. ΔOD at 600 nm equal to zero (blank is the medium alone). MIC for Triafluocyl against S. agalactiae (ATCC 12386) was 40 μg/ml.

E. faecalis (ATCC 29212) = assay: Growth kinetics in logarithmic phase (OD600 and viable count); type: cell-based, Enterococcus faecalis; conditions: 30-120 min, FIG. 3
Procedure: E. faecalis (ATCC 29212) was grown overnight in Brain heart infusion (BHI) medium, diluted 1:100 in fresh BHI, and incubated aerobically at 37° C. until bacteria growth reached a logarithmic phase (OD600=0.25-0.3).
Increasing concentrations of Triafluocyl (Cayman Chemical, Item No. 15425) or DMSO as vehicle was then added in 5 ml of bacteria suspensions. Bacterial growth was measured after different time intervals (30-120 min) by spectrophotometry (OD600) and by counting the colony-forming units after plating appropriate culture dilutions on BHI agar plates.
In FIG. 3 kinetics of E. faecalis growth in the presence of an increasing concentrations (5 μg/ml to 40 μg/ml) of Triafluocyl were measured by turbidity measurement (upper graph), and viable count (lower graph). Data represent medians±range (n=3).

[2] = system: E. faecalis (ATCC 29212) biofilm; assay: Biofilm formation on polystyrene (crystal violet); type: cell-based, Enterococcus faecalis; conditions: 20 hours
Procedure: E. faecalis (ATCC 29212) was grown overnight in BHI medium, before being diluted 100 fold in fresh TSB, and incubated aerobically at 37° C. until bacteria culture reached an OD600 of 0.6 (corresponding to approximately 2-5×10^8 CFU/ml). Bacteria cultures were then diluted to 1×10^4 CFU/ml in fresh TSB. 800 μl aliquots of diluted bacteria suspensions were distributed in each well of a 24-well plate. Bacteria were allowed to adhere for 4 hours under static conditions at 37° C. After removing media, wells were rinsed 2 times with PBS to eliminate planktonic bacteria and re-filled with TSB supplemented with 0.5% glucose
Triafluocyl or DMSO as vehicle was then added at desired concentration and plates were incubated at 37° C. for 20 hours. After incubation, wells were washed and stained with 0.5% (w/v) crystal violet for 30 minutes, washed again and the dye was solubilized by adding 20% acetic acid (v/v in water) before reading absorbance at 595 nm.
E. faecalis biofilms were formed on polystyrene surface in the presence of increasing concentrations of Triafluocyl or DMSO as vehicle. In FIG. 2, Biofilm mass is presented as percentage of values obtained in the presence of DMSO (*P<0.05; **P<0.01; ***P<0.001, Triafluocyl versus DMSO, n=4).

[3] = system: Staphyloccocus epidermidis (ATCC 35984) biofilm; assay: Biofilm formation (crystal violet, 24-well plate); type: cell-based, Staphylococcus epidermidis; conditions: 38 μM; 20 hours; FIG. 10B
Procedure: Staphyloccocus aureus (ATCC 25904) or Staphyloccocus epidermidis (ATCC 35984) were grown overnight in TSB medium, before being diluted 100 fold in fresh TSB, and incubated aerobically at 37° C. until bacteria culture reached an OD600 of 0.6 (corresponding to approximately 1-3×10^8 CFU/ml). Bacteria cultures were then diluted to 1×10^4 CFU/ml in fresh TSB. Aliquots of 800 μl diluted bacteria suspensions were distributed in each well of a 24-well plate. Bacteria were allowed to adhere for 4 hours under static conditions at 37° C. After removing the media, wells were rinsed 2 times with PBS to eliminate planktonic bacteria and re-filled with TSB supplemented with 0.5% glucose containing Fluometacyl at desired concentration or DMSO alone (Ctrl). The 24-well plates were incubated at 37° C. for 20 hours. Wells were then washed and stained with 0.5% (w/v) crystal violet for 30 minutes and rinsed with PBS 4 times. The dye was solubilized by adding 20% acetic acid (v/v in water) before reading absorbance at 595 nm. FIG. 10A and FIG. 10B show Fluometacyl effect on S. aureus and S. epidermidis biofilm formation respectively at all concentrations tested.

SMILES	MIC (E. faecalis ATCC 29212)	MIC [1]	effect on bacterial growth (turbidity and viable count) (E. faecalis (ATCC 29212); 10 μg/ml)	effect on bacterial growth (turbidity and viable count) (E. faecalis (ATCC 29212); 20 μg/ml)	effect on bacterial growth (turbidity and viable count) (E. faecalis (ATCC 29212); 40 μg/ml)	E. faecalis biofilm formation ([2]; 40 μg/ml, polystyrene surface)	E. faecalis biofilm formation ([2]; starting concentration of 10 μg/ml, versus DMSO)	S. epidermidis biofilm formation [3]
CCCSc1nc(N[C@@H]2C[C@H]2c2ccc(F)c(F)c2)c2nnn([C@@H]3C[C@H](OCCO)[C@@H](O)[C@H]3O)c2n1 [Triafluocyl, (1S,2S,3R,5S)-3-[7-[(1R,2S)-2-(3,4-difluorophenyl)cyclopropylamino]-5-(propylthio)-3H-[1,2,3]-triazolo[4,5-d]pyrimidin-3-yl]-5-(2-hydroxyethoxy)-1,2-cyclopentanediol]	40 µg/mL (≈ 76.5 µM)	40 µg/mL (≈ 76.5 µM)	able to inhibit bacterial growth	potent bactericidal effects	potent bactericidal effects	no biofilm could form	significantly reduces	–
CCCSc1nc(N[C@@H]2C[C@H]2c2ccc(F)c(F)c2)c2nnn([C@@H]3C[C@H](O)[C@@H](O)[C@H]3O)c2n1 [Fluometacyl, (1S,2R,3S,4R)-4-[7-[[(1R,2S)-2-(3,4-Difluorophenyl)cyclopropyl]amino]-5-(propylthio)-3H-1,2,3-triazolo[4,5-d]pyrimidin-3-yl]-1,2,3-cyclopentanetriol]	–	–	–	–	–	–	–	could not form any biofilm
